Results published in PMC11392244, “Characterization of a unique catechol-O-methyltransferase as a molecular drug target in parasitic filarial nematodes” (PLOS Neglected Tropical Diseases, 2024).
Several values for one entry are separate records, joined by “and”; a condition that tells them apart may be missing. Identical values can stand only once.

Columns and labels:
mammalian cells = conditions: read-out: Cytotoxicity IC50, ref Tan et al., [31]; cited from earlier work
D. immitis microfilariae = assay: In vitro efficacy against live D. immitis microfilariae (motility, completely immotile %); type: cell-based, Dirofilaria immitis

**Q.** Which results are given for Ivermectin [reference compound]?
**A.** IC50 (mammalian cells): 37.4 µM; Completely Immotile Microfilariae (%) (D. immitis microfilariae; 2.5 µM, 0 h): 0%; Mean completely Immotile (%) (D. immitis microfilariae; 2.5 µM, 0 h): 0%; Completely Immotile Microfilariae (%) (D. immitis microfilariae; 2.5 µM, 24 h): 1% and 2%; Mean completely Immotile (%) (D. immitis microfilariae; 2.5 µM, 24 h): 1.7%; Completely Immotile Microfilariae (%) (D. immitis microfilariae; 2.5 µM, 48 h): 1.5% and 2.5% and 2%; Mean completely Immotile (%) (D. immitis microfilariae; 2.5 µM, 48 h): 2.0%; Completely Immotile Microfilariae (%) (D. immitis microfilariae; 2.5 µM, 72 h): 2% and 2.5% and 3%; Mean completely Immotile (%) (D. immitis microfilariae; 2.5 µM, 72 h): 2.5%; Completely Immotile Microfilariae (%) (D. immitis microfilariae; 2.5 µM, 90 h): 3% and 4% and 4.5%; Mean completely Immotile (%) (D. immitis microfilariae; 2.5 µM, 96 h): 3.8%; Completely Immotile Microfilariae (%) (D. immitis microfilariae; 2.5 µM, 120 h): 5% and 5.5% and 7%; Mean completely Immotile (%) (D. immitis microfilariae; 2.5 µM, 120 h): 5.83%; Mean completely Immotile (%) (D. immitis microfilariae; 5 µM, 0 h): 0%; Completely Immotile Microfilariae (%) (D. immitis microfilariae; 5.0 µM, 0 h): 0%; Mean completely Immotile (%) (D. immitis microfilariae; 5 µM, 24 h): 2.3%; Completely Immotile Microfilariae (%) (D. immitis microfilariae; 5.0 µM, 24 h): 2% and 3%; Mean completely Immotile (%) (D. immitis microfilariae; 5 µM, 48 h): 3.7%; Completely Immotile Microfilariae (%) (D. immitis microfilariae; 5.0 µM, 48 h): 3% and 4%; Mean completely Immotile (%) (D. immitis microfilariae; 5 µM, 72 h): 5.0%; Completely Immotile Microfilariae (%) (D. immitis microfilariae; 5.0 µM, 72 h): 5% and 4.5% and 5.5%; Completely Immotile Microfilariae (%) (D. immitis microfilariae; 5.0 µM, 90 h): 7.5% and 7% and 8.5%; Mean completely Immotile (%) (D. immitis microfilariae; 5 µM, 96 h): 7.7%; Mean completely Immotile (%) (D. immitis microfilariae; 5 µM, 120 h): 15.0%; Completely Immotile Microfilariae (%) (D. immitis microfilariae; 5.0 µM, 120 h): 15% and 12.5% and 17.5%; Completely Immotile Microfilariae (%) (D. immitis microfilariae; 10 µM, 0 h): 0%; Mean completely Immotile (%) (D. immitis microfilariae; 10 µM, 0 h): 0%; Completely Immotile Microfilariae (%) (D. immitis microfilariae; 10 µM, 24 h): 3% and 4%; Mean completely Immotile (%) (D. immitis microfilariae; 10 µM, 24 h): 3.3%; Completely Immotile Microfilariae (%) (D. immitis microfilariae; 10 µM, 48 h): 5% and 6%; Mean completely Immotile (%) (D. immitis microfilariae; 10 µM, 48 h): 5.7%; Completely Immotile Microfilariae (%) (D. immitis microfilariae; 10 µM, 72 h): 7.5% and 8.5%; Mean completely Immotile (%) (D. immitis microfilariae; 10 µM, 72 h): 7.8%; Completely Immotile Microfilariae (%) (D. immitis microfilariae; 10.0 µM, 90 h): 25% and 28.5% and 30%; Mean completely Immotile (%) (D. immitis microfilariae; 10 µM, 96 h): 27.8%; Completely Immotile Microfilariae (%) (D. immitis microfilariae; 10 µM, 120 h): 50% and 53.5% and 53%; Mean completely Immotile (%) (D. immitis microfilariae; 10 µM, 120 h): 52.2%; Mean completely Immotile (%) (D. immitis microfilariae; 15 µM, 0 h): 0%; Completely Immotile Microfilariae (%) (D. immitis microfilariae; 15.0 µM, 0 h): 0%; Mean completely Immotile (%) (D. immitis microfilariae; 15 µM, 24 h): 3.8%; Completely Immotile Microfilariae (%) (D. immitis microfilariae; 15.0 µM, 24 h): 3.5% and 4.5%; Mean completely Immotile (%) (D. immitis microfilariae; 15 µM, 48 h): 6.2%; Completely Immotile Microfilariae (%) (D. immitis microfilariae; 15.0 µM, 48 h): 6% and 6.7%; Mean completely Immotile (%) (D. immitis microfilariae; 15 µM, 72 h): 11.0%; Completely Immotile Microfilariae (%) (D. immitis microfilariae; 15.0 µM, 72 h): 10% and 12% and 11%; Completely Immotile Microfilariae (%) (D. immitis microfilariae; 15.0 µM, 90 h): 30% and 37% and 33%; Mean completely Immotile (%) (D. immitis microfilariae; 15 µM, 96 h): 33.3%; Mean completely Immotile (%) (D. immitis microfilariae; 15 µM, 120 h): 72.3%; Completely Immotile Microfilariae (%) (D. immitis microfilariae; 15.0 µM, 120 h): 70% and 75% and 72%; Mean completely Immotile (%) (D. immitis microfilariae; 20 µM, 0 h): 0%; Completely Immotile Microfilariae (%) (D. immitis microfilariae; 20.0 µM, 0 h): 0%; Mean completely Immotile (%) (D. immitis microfilariae; 20 µM, 24 h): 11.2%; Completely Immotile Microfilariae (%) (D. immitis microfilariae; 20.0 µM, 24 h): 10% and 12.5% and 11%; Mean completely Immotile (%) (D. immitis microfilariae; 20 µM, 48 h): 15.7%; Completely Immotile Microfilariae (%) (D. immitis microfilariae; 20.0 µM, 48 h): 15% and 17%; Mean completely Immotile (%) (D. immitis microfilariae; 20 µM, 72 h): 26.0%; Completely Immotile Microfilariae (%) (D. immitis microfilariae; 20.0 µM, 72 h): 25% and 30% and 23%; Completely Immotile Microfilariae (%) (D. immitis microfilariae; 20.0 µM, 90 h): 50% and 65% and 49%; Mean completely Immotile (%) (D. immitis microfilariae; 20 µM, 96 h): 54.7%; Mean completely Immotile (%) (D. immitis microfilariae; 20 µM, 120 h): 90.3%; Completely Immotile Microfilariae (%) (D. immitis microfilariae; 20.0 µM, 120 h): 90% and 94% and 87%; Mean completely Immotile (%) (D. immitis microfilariae; 30 µM, 0 h): 0%; Completely Immotile Microfilariae (%) (D. immitis microfilariae; 30.0 µM, 0 h): 0%; Mean completely Immotile (%) (D. immitis microfilariae; 30 µM, 24 h): 27.7%; Completely Immotile Microfilariae (%) (D. immitis microfilariae; 30.0 µM, 24 h): 25% and 30% and 28%; Mean completely Immotile (%) (D. immitis microfilariae; 30 µM, 48 h): 43.0%; Completely Immotile Microfilariae (%) (D. immitis microfilariae; 30.0 µM, 48 h): 40% and 46% and 43%; Mean completely Immotile (%) (D. immitis microfilariae; 30 µM, 72 h): 56.0%; Completely Immotile Microfilariae (%) (D. immitis microfilariae; 30.0 µM, 72 h): 50% and 60% and 58%; Completely Immotile Microfilariae (%) (D. immitis microfilariae; 30.0 µM, 90 h): 80% and 85% and 88%; Mean completely Immotile (%) (D. immitis microfilariae; 30 µM, 96 h): 84.3%; Mean completely Immotile (%) (D. immitis microfilariae; 30 µM, 120 h): 95.3%; Completely Immotile Microfilariae (%) (D. immitis microfilariae; 30.0 µM, 120 h): 95% and 98% and 93%; EC50 (D. immitis microfilariae; read-out: Anti-parasitic EC50): 17.6 µM
